Measured values: paper PMC6391964, “Radical‐Mediated Thiol‐Ene Strategy: Photoactivation of Thiol‐Containing Drugs in Cancer Cells” (Angewandte Chemie (International Ed. in English), 2018)
Read-outs that look alike come from different tables or passages of the source.

Legend:
[1] = tested on: HCT-116 colon carcinoma cells; type: cell-based, human
Method: (§1) T a bl e S4. The parallel artific ial membrane permeability assay (PAM PA). […]
(§2) […] The cel l s were s pl it before reac hi ng confl uence w i t h 0. 05% T ry ps i n-ED TA (G i bco™, The rmo Fisher Scientific).
(§3) C ell v ia bility a ssa y
HC T-116 cells suspended in McCoy’s 5A m edium were plated in 96 -w el l pl at es (200 μ L, 2, 500 cells/well), incubated (37 °C, 5% CO2), and 24 h later treated with various concentrations of compou nds or s ol v ent cont rol (0. 25% D M SO). […] […] Cell viability w as cal cul at ed accordi ng t o t he manufact u rer’ s i ns t ruct i ons (Promeg a).
T a bl e S5. GI50 of the L argazole, L argazole Thiol and Stapled L argazole

[2] = Parallel artificial membrane permeability assay (PAMPA); type: in vitro ADME; conditions: PAMPA Evolution, Pion GIT-0 phospholipid mixture, ~50 μM, ~15 h, UV read-out, average of quadruplicates
Method: […] […] The effect i v e permeability, Pe, of each compound was measured at the customer -s peci fi ed pHs i n t he dono r compart ment us i ng l ow-bi ndi ng , l ow UV P ri s ma bu ffer. […] The propri et ary s cav eng er mi mi cs s erum prot ei ns and bl ood ci rcul at i on, t hus creat i ng si nk condi t i ons .
I n t he defaul t p rot oc ol t he a queous s ol ut i ons of s t udi ed com poun ds are p repared by di l ut i ng and thoroughly mixing 3 μL of DMSO stock in 600μL of Prisma HT buffer. Final concentration of org ani c s ol v ent (D M SO) i n aqueous buf fer i s ≤ 0. 5 % (v /v ).
The PAM PA s andw i ch was assembl ed and al l owed to i ncubat e for ~15 ho urs . The s ol ut i ons i n t he don or compart ment w ere un- stirred within du ration of t he ex peri ment . Thus , t he t hi ck nes s of t he aqueous bounda ry l ay er ex pect ed t o be about 1000 μ m. […] Ket oprofen, Verapmi l and P ropan ol ol w ere us ed as […]
[…] […] Act ual pH t he bu ffers w as 7. 40 ± 0. 05.
S t o c k sol u ti ons preparation
The samples were diluted with an organic solvent (DMSO) to prepare stock s ol ut i ons at concent rat i on ~10 mM . […] 40 […]
as §1, §2, §3
HC T-116 cells suspended in McCoy’s 5A m edium were plated in 96 -w el l pl at es (200 μ L, 2, 500 […]

[3] = UV-initiated thiol-ene decaging reaction (HPLC); type: physicochemical; conditions: 1-thio-β-D-glucose tetraacetate and DPAP, UV irradiation 365 nm, 15 minutes; HPLC trace
Excerpt: Inspired by this AFCT reaction, we hypothesized that the isobutylene structure could be used as a bridging graft to cage thiol‐containing drugs and allow further controlled activation of anticancer drugs by means of a radical‐mediated thiol‐ene mechanism (Scheme 1). […] Our research began with N‐tert‐butoxycarbonyl‐L‐cysteine methyl ester (N‐Boc‐Cys‐OMe 1), which was protected with 3‐bromo‐2‐bromomethyl‐1‐propene (Table 1 and Supporting Information). The stapled cysteine 2 was then screened under a series of reaction conditions. Firstly, different PIs were tested with the same amounts of thiol source, 1‐thio‐β‐D‐glucose tetraacetate (4AcGlcSH), and 2 under irradiation at 365 nm. […] However, the other PI, 2,2‐dimethoxy‐2‐phenylacetophenone (DPAP) successfully promoted the reaction and released 1. β‐Mercaptoethanol (BME) was also tested as the thiol compound under the same reaction conditions. […] However, when N,N‐dimethylformamide (DMF) was used as solvent, two mixed disulfides resulting from the reaction between the 1‐thioglucose and N‐Boc‐cysteine methyl ester 1′ were observed. […]
The cyclic depsipeptide largazole is a marine natural product, and its derivatives are recognized as promising potential anticancer therapeutics. […] Next, the growth‐inhibitory activity was evaluated with human colon carcinoma cell lines, HCT‐116 (Figure 2 c). […]

HDAC = experiment: Fluorometric HDAC activity assay with HCT-116 cell lysates; type: cell-based, human; conditions: UV-irradiated premixed group of stapled largazole and DPAP, relative to control groups and non-irradiation group, Ex/Em 355/460 nm
Method: (§4) Viability Viability Viability
(§5) DPAP Toxicity DPAP+64W-15min DPAP+80W-15min
(§6) Figu r e S7. The DPAP c onc entration and UV c ondition Sc reening. a) The cytotoxicity of DPAP without UV; b) The cytotoxicity of DPAP with UV, 365 nm, 64W, 15 min; c) The cytotoxicity of DPAP with UV, 365 nm, 80W, […]
(§7) P hotoa ctiv a tion of S ta pled La r g a zole in H C T-116 cells
(§8) Plate Cells Compounds UV CellTiter Blue Detect
(§9) Sch eme S6. The phot oact ivat ion of St apled L argazole in HC T- 116 c ells.
(§10) […] […] […] Aft er a not her 48 h of i ncubat i on, t he cel l v i abil it y w as measured according to the general method a bove.
(§11) H istone D ea cety la se ( H D AC ) Activ ity Assa y ( Fluor om etr ic) Following the measurement of the cell viability, the plates were washed with cold PBS for three t i mes. […]
(§12) (also on this page, place not known: Condition Screening Figure concentration condition Screening. Photoactivation Stapled Largazole HCT-116 Scheme photoactivation Stapled Largazole HCT-116 cells. HCT-116 cells plated in 200 μL medium per well density 2,500 cells/well grown in plates. incubated oC, 5% CO2). After h, cells various (Largazole, Largazole Thiol Stapled Largazole nM, 1.5 μM) solvent control (0.25% DMSO). group irradiated with light W) min. […]
(Thermo Sci ent i fi c™). […] Aft er be i ng i ncubat ed fo r an ot her 30 mi n at R T, t he fl uores cence i nt ens i t y w as read at Ex /Em = 35 5 n m / 4 60 nm. […]

HCT-116 cells = experiment: Photoactivation of stapled largazole in HCT-116 cells (cell viability); type: cell-based, human; conditions: stapled largazole 150 nM premixed with DPAP 1.5 μM, UV 365 nm, 80 W, 15 min, then 48 h, compared with non-irradiation, stapled largazole and largazole thiol groups
Method: as §4, §5, §6, §7, §8, §9, §10, §11
as §12, with “min. After another of incubation, viability was above.” for “min.”

CC(C)[C@@H]1NC(=O)[C@]2(C)CSC(=N2)c2csc(n2)CNC(=O)C[C@@H](/C=C/CCS)OC1=O [largazole thiol]
GI50 ([1]; 48 h): 185 nM

CCCCCCCC(=O)SCC/C=C/[C@@H]1CC(=O)NCc2nc(cs2)C2=N[C@@](C)(CS2)C(=O)N[C@@H](C(C)C)C(=O)O1 [largazole]
GI50 ([1]; 48 h): 1.43 nM

C=C(CSCC/C=C/[C@@H]1CC(=O)NCc2nc(cs2)C2=N[C@@](C)(CS2)C(=O)N[C@@H](C(C)C)C(=O)O1)CSCC/C=C/[C@@H]1CC(=O)NCc2nc(cs2)C2=N[C@@](C)(CS2)C(=O)N[C@@H](C(C)C)C(=O)O1 [stapled largazole]
GI50 ([1]; HCT-116 cells, 48 h treatment, CellTiter-Blue, read-out: GI50): 408 nM | logPe (Avg. logPe) ([2]; donor Prisma HT buffer pH 7.4, acceptor sink buffer pH 7.4, DMSO <0.5%, unstirred): −5.29 | Papp ([2]; donor Prisma HT buffer pH 7.4, acceptor sink buffer pH 7.4, DMSO <0.5%, unstirred, read-out: Pe, effective permeability (Avg. Pe)): 5.3 ×10⁻⁶ cm/s | Avg. %R, membrane retention ([2]; donor pH 7.4, by mass balance): 10% | Conversion in the decaging reaction [3]: Full conversion | HDAC activity (fluorescence) after photoactivation (HDAC): significant decrease of fluorescence | Cell viability after photoactivation (HCT-116 cells): significantly lower cell viability
